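Following 48 hours of exposure in 96-well plates, responses at five concentrations were used to interpolate endpoints linearly. Here, GI50 denotes the concentration required for 50% inhibition of growth. TGI is the concentration that stops growth completely.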
Columns and labels:
Assay in all cases: growth of human tumour cells (NCI), 48 h
[1] = test system: HCC-2998 colon
[2] = test system: HCT-116 colon
[3] = test system: NCI-H226 lung
[4] = test system: MCF7 breast
[5] = test system: SF-295 CNS
[6] = test system: OVCAR-5 ovarian
[7] = test system: LOX IMVI melanoma
[8] = test system: K-562 leukemia
[9] = test system: NCI-H522 lung
[10] = test system: OVCAR-4 ovarian

Row | SMILES | GI50 [1] [µM] | TGI [1] [µM] | GI50 [2] [µM] | TGI [2] [µM] | GI50 [3] [µM] | TGI [3] [µM] | GI50 [4] [µM] | TGI [4] [µM] | GI50 [5] [µM] | TGI [5] [µM] | GI50 [6] [µM] | TGI [6] [µM] | GI50 [7] [µM] | TGI [7] [µM] | GI50 [8] [µM] | TGI [8] [µM] | GI50 [9] [µM] | TGI [9] [µM] | GI50 [10] [µM] | TGI [10] [µM]
1 | COc1cc2c(cc1C)NC(=O)/C2=C/c1c(C)nc2sc(C)cn12 | 31.7 | > 100 | 53.5 | > 100 | 82.8 | > 100 | 64.1 | > 100 | 45.2 | > 100 | > 100 | > 100 | > 100 | > 100 | 35.3 | > 100 | 52.5 | > 100 | > 100 | > 100
2 | Cc1ccc(S(=O)(=O)N2C/C(=C\c3cc(F)cc(F)c3)C(=O)/C(=C/c3cc(F)cc(F)c3)C2)cc1 | 0.632 | 1.97 | 0.162 | 0.513 | 2.42 |  | 0.177 | 1.38 | 0.291 | 1.06 | 0.713 | 2.28 | 0.175 | 0.339 | 0.0605 | 1.24 | 0.26 | 0.721 | 0.367 | 3.57
3 | N=C1N=Nc2nc(C3(c4nc5n(c4O)C(=N)N=N5)Cc4ccccc4C3=O)c(O)n21 (stereo not given) |  | > 100 |  | > 100 |  | > 100 |  | > 100 |  | > 100 |  | > 100 |  | > 100 |  | > 100 | 87.5 | > 100 | > 100 | > 100
4 | CCN1CCN(Cc2ccc3cc(C(=O)Nc4cc(NC(=O)c5ccc6c(c5)OCCO6)ccc4F)ccc3n2)CC1 | 0.0511 | 5.73 | 0.0354 | 13 |  | 3.45 | 0.183 | 6.75 | 0.0475 | 2.92 | 0.0858 | 12.5 | 0.0343 | 1.43 | 0.0505 | 14.5 | 0.0351 | 0.427 | 0.0772 | 1.91
5 | C#CCOc1c(OC)cc(C(=O)/C(C)=C/c2cccc(N=[N+]=[N-])c2)cc1OC | 0.464 | > 100 | 0.0468 | 10.8 | 15 | > 100 | 0.0447 | > 100 | 0.122 | > 100 | 1.23 | > 100 | 0.642 | > 100 | 0.0383 | > 100 | 0.155 | 0.8 | 1.19 | > 100
6 | O=C1C=CC(=O)N1CCCCCCCCCCN1C(=O)C=CC1=O | 26 | 71.2 | 3.6 | 12.9 | 17.1 | 34.4 | 5.62 | 24.2 | 23.5 | 74.4 | 17.4 | 31.6 | 11.3 | 24.4 | 7.63 | 67.9 | 1.6 | 3.41 | 8.38 | 24.8
7 | COc1ccc2oc(-c3ccc(Cl)cc3)c(N3CCN(C)CC3)c2c1 | 2.02 | 4.13 | 1.98 | 4.59 | 3.16 | 14.5 | 1.7 | 3.5 | 2.06 | 5.12 | 1.95 | 4.34 | 1.61 | 3.07 | 3.38 | > 100 | 1.9 | 3.91 | 2.12 | 7.22
8 | COC(=O)/C(Br)=C/c1c[nH]c2ccc(Br)cc12 | 15.9 | 30.4 | 12.5 | 27.4 | 14.4 | 33.2 | 10.9 | 26.8 | 12.4 | 27.3 | 13.6 | 31.3 | 7.18 | 20.2 | > 100 | > 100 | 10.2 | 32.1 | 10.7 | 56.8
9 | COc1cccc(-c2cc(NCc3ccc4c(c3)OCO4)nc(N)n2)c1 | 0.137 | 2.9 | 0.0473 | 11.6 | 11.7 | 32.5 | 0.0765 | 13.9 | 0.0597 | 14.4 | 0.488 | 28.8 | 0.0773 | 19.4 | 0.041 | > 34 | 0.0607 | 1.27 | 0.225 | 27.5
10 | COc1ccc2cc(C(=O)/C=C/c3ccccc3OC)ccc2c1 | 5.92 | 13 | 1.4 | 6.5 | 3.24 | 18.7 |  | > 100 | 1.59 | 7.2 | 18.4 | 49.7 | 0.863 | 3.89 | 0.669 |  | 1.93 | 9.67 | 18.9 | > 100
11 | Cc1cc(Cl)ccc1Nc1nc(C(F)(F)F)ccc1C(=O)N/N=C/c1c(Cl)cccc1Cl | 0.459 | > 100 | 0.287 |  | 0.243 | 1.74 | 0.233 | 0.749 | 0.0741 | 0.376 | 0.888 | > 100 | 0.257 | > 100 | 0.253 |  | 0.306 |  | 0.289 | > 100
12 | O=C(Nc1cccc(-n2cc(-c3ccncc3)c(-c3ccc(O)c(Cl)c3)n2)c1)Nc1ccc(Cl)c(C(F)(F)F)c1 | 2.81 | 6.98 | 2.4 | 8.21 | 2.02 | 4.46 | 1.8 | 4.34 | 1.88 | 5.12 | 3.02 | 13.9 | 1.61 | 3.21 | 2.44 | 9.79 | 1.64 | 4.16 | 2.77 | 9.97
